According to PMC7653338 (Beilstein Journal of Organic Chemistry, 2020):
Entries after “also recorded” stand apart in the source; their conditions may differ. Residues, ends and D or L forms follow the SMILES beside them. *: point of attachment. X1 = O=C(Cc1ccc2ccccc2c1)N[C@H](Cc1ccccc1)C(=O)N[C@H](Cc1ccccc1)C(=O)N[C@H](CCCCN*)C(=O)N[C@H](Cc1ccc(O)cc1)C(=O)O

Assays:
HeLa cells = test: MTT cell viability assay, HeLa cells; assay type: cell-based; details: 400 μM, three days, absorbance 595 nm, three independent experiments
Procedure: (§1) We investigated the cell compatibility of 1 and 2 by incubation with two kinds of mammalian cells, HeLa and Saos-2 cells, using the 3-(4,5-dimethylthiazol-2-yl)-2,5-diphenyl tetrazolium bromide (MTT) assay. The cell viability of HeLa and Soas-2 cells after being incubated with 1 (400 μM) for three days are about 90% and 80%, respectively. […] To confirm that 1 and 2 convert from micelles to nanofibers in a cellular environment, we incubated of 1 or 2 at 500 μM in the lysates of HeLa cells (Figure S5, Supporting Information File 1) and examined the amount of each component in % by LC–MS. After 24 h incubation, 44% of 1 or 39% of 2, was cleaved to Nap-ffky, which self-assembles as part for the nanofibers. […] Then, we used confocal laser scanning microscopy (CLSM) to examine whether these compounds deliver RPE into HeLa cells. […]
(§2) Circular dichroism (CD) analysis : CD spectra were recorded ([…]) using a JASCO 810 spectrometer under a nitrogen atmosphere. […] The percentage of the secondary structures in different samples was calculated by the programs provided in DichroWeb. […]
(§3) reaction and to dissolve the purple formazan. After incubation of the cells at 37 ° C overnight, the absorbance of each well at 595 nm was measured in a multimode microplate reader. […]

Saos-2 cells = test: MTT cell viability assay, Saos-2 cells; assay type: cell-based; details: 400 μM, three days, absorbance 595 nm, three independent experiments
Procedure: as §1, §2, §3

[1] = assay type: in vitro ADME; details: 500 μM peptide in HeLa cell lysate, 24 h, 37 °C, lysis buffer pH 7.4, LC-MS
Procedure: as §1, with “cells. After mixing R-phycoerythrin (RPE), a red fluorescent protein, with 1 or 2 at different concentrations, we incubated the mixtures with HeLa cells for 2 h and 4 h.” for “cells.”
reaction and to dissolve the purple formazan. After incubation of the cells at 37 ° C overnight, the absorbance of each well at 595 nm was measured in a multimode microplate reader. Three independent experiments were performed, with an average ± […]
Confocal microscopy: Cells in the exponential growth phase were seeded in a glass-bottomed culture chamber at 1 × 10^5 cells/well. […]

proteinase K [2] = molecular target: proteinase K (Parengyodontium album, UniProt P06873); test: Enzymatic proteolysis catalyzed by proteinase K, LC-MS; assay type: in vitro ADME; details: for proteolytic products with proteinase K: 5 mM peptide, proteinase K 5 U/mL, Tris-HCl buffer pH 7.0, 24 h, LC-MS
Procedure: After having obtained the peptides 1 and 2, we examined the enzymatic proteolysis of 1 and 2 catalyzed by proteinase K. We added proteinase K, a powerful endopeptidase, to the solutions of 1 and 2 (5 mM, pH 7.0, in Tris-HCl buffer). […] Then, we conducted a time-dependent CD analysis to examine the change of the secondary structural conformations of 1 and 2 during the proteolysis catalyzed by proteinase K in Tris-HCl buffer at pH 7.0. […] During the transition from micelles to fibrils, the CD signal at 210 nm reverses the sign, likely due to the self-assembly of Nap-ffky to helical fibrils. Analyzing the CD spectra by the Contin-LL analysis program, we estimated the percentage of each conformation, further confirming the trend and the assignment of the dominant conformation. As shown in Figure 2C and Figure 2F, the initial state of peptide 1 has more β-strand conformations than that of peptide 2. With increasing proteolysis time, the CD spectra indicate that the cleavage of 1 or 2 results in more assemblies that favor β-strand conformations (Figure 2D and Figure 2E). In addition, the ratio of the β-strand conformation resulted from the cleavage of 1 being slightly faster than that of 2.
Figure 2 A) LC–MS spectrum of the proteolytic products after 1 (5 mM) was incubated with proteinase K (5 U/mL) for 24 h. B) Time-dependent circular dichroism (CD) spectra of 1 incubated with proteinase K in Tris-HCl buffer at pH 7.0. C) CD simulation of the mixture from the spectra in B. D) LC–MS spectrum of the proteolytic products after 2 (5 mM) was incubated with proteinase K (5 U/mL) for 24 h. E) Time-dependent CD spectra of 2 incubated with proteinase K in Tris-HCl buffer at pH 7.0. F) CD simulation of the mixture from the spectra in E.

enterokinase (ENTK) [3] = molecular target: enterokinase (ENTK) (Homo sapiens, UniProt P98073); test: Proteolysis by enterokinase (ENTK); assay type: in vitro ADME; details: Figures S3 and S4
Description: In addition, unlike the FLAG-tag-based branched peptides, 1 and 2 are proteolytic-resistant to enterokinase (ENTK, Figures S3 and S4, Supporting Information File 1).

enterokinase (ENTK) [4] = test: enterokinase (ENTK)
proteinase K [5] = test: proteinase K (5 U/mL) in Tris-HCl buffer, pH 7.0; details: up to 24 h
[6] = lysates of HeLa cells, in 10 mmol of lysis buffer at pH 7.4; details: 37 °C, up to 24 h

Sequence of proteinase K (Parengyodontium album, UniProt P06873) (P06873 106-384, species assumed): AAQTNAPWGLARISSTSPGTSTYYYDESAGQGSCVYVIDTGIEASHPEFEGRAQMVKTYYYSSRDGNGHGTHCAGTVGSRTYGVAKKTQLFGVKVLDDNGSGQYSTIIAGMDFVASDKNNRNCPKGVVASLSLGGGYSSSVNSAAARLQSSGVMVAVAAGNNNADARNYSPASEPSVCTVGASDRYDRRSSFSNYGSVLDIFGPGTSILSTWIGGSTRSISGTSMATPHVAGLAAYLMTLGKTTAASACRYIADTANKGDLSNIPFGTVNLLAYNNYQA
Sequence of enterokinase (ENTK) (Homo sapiens, UniProt P98073) (P98073 whole entry, species assumed): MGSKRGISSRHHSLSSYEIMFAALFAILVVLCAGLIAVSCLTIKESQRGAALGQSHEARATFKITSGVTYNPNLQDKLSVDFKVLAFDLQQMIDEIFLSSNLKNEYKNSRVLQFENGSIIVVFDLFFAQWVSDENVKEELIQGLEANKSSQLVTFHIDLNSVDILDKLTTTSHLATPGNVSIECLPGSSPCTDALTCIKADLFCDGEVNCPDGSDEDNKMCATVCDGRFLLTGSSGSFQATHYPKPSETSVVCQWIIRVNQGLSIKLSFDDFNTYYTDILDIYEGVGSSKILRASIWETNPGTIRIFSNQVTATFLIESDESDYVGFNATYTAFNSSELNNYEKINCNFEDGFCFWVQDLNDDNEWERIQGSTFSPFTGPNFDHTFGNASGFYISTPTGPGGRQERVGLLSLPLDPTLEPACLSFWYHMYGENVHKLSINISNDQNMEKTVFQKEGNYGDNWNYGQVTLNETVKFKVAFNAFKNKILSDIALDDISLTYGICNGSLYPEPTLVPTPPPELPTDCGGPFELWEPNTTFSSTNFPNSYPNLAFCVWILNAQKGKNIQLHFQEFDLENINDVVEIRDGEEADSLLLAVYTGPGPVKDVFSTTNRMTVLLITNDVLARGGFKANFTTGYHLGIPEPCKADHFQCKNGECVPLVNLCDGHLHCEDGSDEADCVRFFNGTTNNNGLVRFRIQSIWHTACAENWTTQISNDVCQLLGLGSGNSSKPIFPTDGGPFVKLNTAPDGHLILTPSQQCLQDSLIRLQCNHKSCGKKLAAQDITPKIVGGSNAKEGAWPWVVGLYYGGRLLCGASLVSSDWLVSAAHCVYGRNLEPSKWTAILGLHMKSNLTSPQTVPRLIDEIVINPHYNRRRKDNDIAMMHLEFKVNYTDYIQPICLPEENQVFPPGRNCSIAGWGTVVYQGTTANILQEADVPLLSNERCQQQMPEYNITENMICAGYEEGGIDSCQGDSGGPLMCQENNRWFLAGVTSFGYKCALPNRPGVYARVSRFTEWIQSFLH

Row | Molecule | cell viability (HeLa cells) | cell viability (Saos-2 cells) [%] | amount cleaved to Nap-ffky [1] [%] | proteolytic products with proteinase K (proteinase K [2]) | resistance to proteolysis by enterokinase (enterokinase (ENTK) [3]) | stability towards the proteolysis (acetylated versus non-acetylated branch) (proteinase K [2]; proteinase K, compared with 1) | not cleaved (enterokinase (ENTK) [4]) | fragment found (proteinase K [5]) | fragment found [6]
1 | CC[C@H](C)[C@H](NC(=O)[C@H](CC(C)C)NC(=O)[C@H](CC(C)C)NC(=O)[C@H](CC(=O)O)NC(=O)[C@H](CC(=O)O)NC(=O)[C@H](CC(=O)O)NC(=O)[C@H](CCC(=O)O)NC(=O)[C@@H](N)CC(=O)O)C(=O)NCC(=O)NCCCC[C@@H](NC(=O)[C@@H](Cc1ccccc1)NC(=O)[C@@H](Cc1ccccc1)NC(=O)Cc1ccc2ccccc2c1)C(=O)N[C@H](Cc1ccc(O)cc1)C(=O)O [compound 1, Nap-ffk(NH2-DEDDDLLIG)y] (H-DEDDDLLIG-X1) | about 90% | ~80 | 44 | undergoes proteolytic cleavage to form DEDDDLLIG and Nap-ffky | proteolytic-resistant | – | – | – | –
2 | CC[C@H](C)[C@H](NC(=O)[C@H](CC(C)C)NC(=O)[C@H](CC(C)C)NC(=O)[C@H](CC(=O)O)NC(=O)[C@H](CC(=O)O)NC(=O)[C@H](CC(=O)O)NC(=O)[C@H](CCC(=O)O)NC(=O)[C@H](CC(=O)O)NC(C)=O)C(=O)NCC(=O)NCCCC[C@@H](NC(=O)[C@@H](Cc1ccccc1)NC(=O)[C@@H](Cc1ccccc1)NC(=O)Cc1ccc2ccccc2c1)C(=O)N[C@H](Cc1ccc(O)cc1)C(=O)O [compound 2, Nap-ffk(AcNH-DEDDDLLIG)y] (Ac-DEDDDLLIG-X1) | – | – | 39 | proteolytically hydrolyzes into four parts, including DEDDDLLIG, DEDDDLL, DEDDDL, and Nap-ffky | proteolytic-resistant | enhanced stability towards the proteolysis | – | – | –
3 | Nap-ffk(AcNH-DEDDDLLIG)y | – | – | – | – | – | – | proteolytic-resistant to enterokinase | Nap-ffky, 24 h | Nap-ffky, 24 h
4 | Nap-ffk(NH2-DEDDDLLIG)y | – | – | – | – | – | – | proteolytic-resistant to enterokinase | DEDDDLLIG, 24 h; also recorded: Nap-ffky, 24 h | Nap-ffky, 24 h
